{"source": "patent US7771713B2", "about": "“Chemical composition that attract arthropods” (priority 1999, dated 2010)", "key": {"[1]": {"tested_on": "Aedes albopictus", "experiment": "Olfactometer attraction test of compounds and compositions", "assay_type": "in vivo", "excerpt": "The olfactometer was cleaned after each battery of tests."}, "[2]": {"tested_on": "Aedes aegypti", "experiment": "Olfactometer attraction test, treatment port vs control port, approximately 75 female mosquitoes", "assay_type": "in vivo", "conditions": "for LA Avg response: average of n = 51 trials, 200 μL of 1 μg/μL methanolic solution; for Acetone Avg response: average of n = 4 trials, 500 μL from a 60 mm diameter glass petri dish; for Δ [(Resp with LA) − Resp] (%): difference between response with L-lactic acid and response alone", "experimental": "(§1) The tests were conducted in an olfactometer (55 ft^3/min airflow, 80° F., 60% R.H.) as described by Posey, J. Med. Entomol., 35, 330-334 (1998); and LA is lactic acid. Mosquitoes were allowed to settle at least one hour prior to testing. The olfactometer was cleaned after each battery of tests. Each battery consisted of three tests, conducted at 08:30, 11:00 and 13:00 hours local time. Each of the three tests was conducted in a separate cage. The control consisted of identical sample delivery devices and conditions compared to that of the treatment side. Both the treatment and control ports were opened and closed simultaneously when inserting a new treatment/control."}, "[3]": {"tested_on": "Anopheles albimanus", "experiment": "Olfactometer attraction test of compounds and compositions", "assay_type": "in vivo"}, "[4]": {"tested_on": "Aedes aegypti", "experiment": "Formulation and verification of the best blend: one treatment vs another treatment in the olfactometer", "conditions": "200 μg L-lactic acid (1w) vs. 200 μg L-lactic acid (1w) + Acetone (3B)", "experimental": "as §1"}}, "note": "Values joined by “and” are separate entries in the source; they are usually repeats but may differ in a detail not shown here. Equal values may be shown once."}
{"compound": "NCCCCN", "note": "[1,4-Diaminobutane]", "values": [{"measurement": "% caught", "setting": "[1]; single treatment, 1B (1 black cap)", "result": 6.8, "unit": "%"}]}
{"compound": "C[C@H](O)C(=O)O", "note": "[L-lactic acid]", "values": [{"measurement": "LA Avg response", "setting": "[2]", "result": 26, "unit": "%"}, {"measurement": "LA Avg response", "setting": "[2]; listed as LA", "result": "LA Avg: 1303/51 = 26%, n = 51 trials"}, {"measurement": "Response (%)", "setting": "[2]; base compound alone (mode of action similar to lactic acid)", "result": 26, "unit": "%"}, {"measurement": "Response with Ace (%)", "setting": "[2]; base compound together with acetone", "result": 88, "unit": "%"}, {"measurement": "Δ [(Resp with Ace) − Resp] (%)", "setting": "[2]; difference between response with acetone and response alone", "result": 62, "unit": "%"}, {"measurement": "L-lactic acid response (%)", "setting": "[2]; single trials, 200 μL of a 1 μg/1 μL methanolic solution, dried 3 minutes in a petri dish, percentage caught of 75 female mosquitos", "result": 27, "unit": "%"}, {"measurement": "% caught", "setting": "[1]; single substance, 200 μg, listed as LA", "result": "11.7% and 8.3%"}, {"measurement": "% caught", "setting": "[3]; single substance, 400 μg dish", "result": 1.3, "unit": "%"}, {"measurement": "% mosquitoes trapped, treatment vs treatment", "setting": "[4]", "result": 8, "unit": "%"}]}
{"compound": "CC(C)=O", "note": "[acetone]", "values": [{"measurement": "Acetone Avg response", "setting": "[2]", "result": 51, "unit": "%"}, {"measurement": "Acetone Avg response", "setting": "[2]; listed as Acetone", "result": "Acetone Avg: 203/4 = 51%, n = 4 trials"}, {"measurement": "Response with L-LA (%), average in parentheses", "setting": "[2]; compound 500 μL with L-lactic acid, average of the trials", "result": "(88%)"}, {"measurement": "Response (%), average in parentheses", "setting": "[2]; compound alone 500 μL, average of the trials", "result": "(51%)"}, {"measurement": "Δ [(Resp with LA) − Resp] (%)", "setting": "[2]", "result": 37, "unit": "%"}, {"measurement": "Acetone response (%)", "setting": "[2]; single trials, 500 μL, plated on a small petri dish", "result": "51% and 48% and 53%"}, {"measurement": "% caught", "setting": "[1]; single substance, 500 μL Dish", "result": 9.1, "unit": "%"}, {"measurement": "% caught", "setting": "[3]; single treatment, 500 μL", "result": 29.6, "unit": "%"}]}
{"compound": "N#CCc1ccccc1", "note": "[phenylacetonitrile]", "values": [{"measurement": "Response with L-LA (%)", "setting": "[2]; compound 500 μL together with L-lactic acid", "result": 63, "unit": "%"}, {"measurement": "Response (%)", "setting": "[2]; compound alone, high dose of 500 μL", "result": 16, "unit": "%"}, {"measurement": "Δ [(Resp with LA) − Resp] (%)", "setting": "[2]", "result": 47, "unit": "%"}, {"measurement": "% caught", "setting": "[3]; single treatment, 500 μL", "result": 1.3, "unit": "%"}]}
